Consider 22 molecules from patent US8232426B2, “Aminoethylaromatic compounds suitable for treating disorders that respond to modulation of the dopamine D3 receptor” (Abbott GmbH & Co. KG, priority 2004, dated 2012).

Structures can show the parent of a compound that is named as a salt. Where two headings read alike, the source gives them in different places.

For experiment [1], the target named is T1, human dopamine D3 receptors (Homo sapiens, UniProt P35462).
T1 construct: expressed in transfected cells; host or cells: HEK-293
T1 sequence (P35462 whole entry): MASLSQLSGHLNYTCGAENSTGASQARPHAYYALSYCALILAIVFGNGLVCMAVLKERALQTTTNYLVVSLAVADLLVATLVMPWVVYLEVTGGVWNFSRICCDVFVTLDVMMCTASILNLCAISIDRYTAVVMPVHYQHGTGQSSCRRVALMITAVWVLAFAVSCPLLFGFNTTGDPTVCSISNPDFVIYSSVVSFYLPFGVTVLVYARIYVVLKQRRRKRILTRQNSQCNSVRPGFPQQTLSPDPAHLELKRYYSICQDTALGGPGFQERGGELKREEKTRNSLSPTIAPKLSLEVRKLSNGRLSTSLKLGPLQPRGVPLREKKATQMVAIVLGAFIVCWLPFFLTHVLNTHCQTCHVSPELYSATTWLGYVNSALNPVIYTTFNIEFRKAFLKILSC
Nature of the experiment: Dopamine D3 receptor binding ([125I]-iodosulpride displacement). The procedure:
(§1) Each assay mixture was run in triplicate. • The incubation buffer contained 50 mM tris, 120 mM NaCl, 5 mM KCl, 2 mM CaCl2, 2 mM MgCl2 and 0.1% bovine serum albumin, 10 μM quinolone and 0.1% ascorbic acid (prepared fresh daily). […] Each assay mixture was run in triplicate. • The incubation buffer contained 50 mM tris, 120 mM NaCl, 5 mM KCl, 2 mM CaCl2, 2 mM MgCl2 and 0.1% bovine serum albumin. The buffer was adjusted to pH 7.4 with HCl. • Measurement and Analysis: • After having been incubated at 25° C. for 60 minutes, the assay mixtures were filtered through a Whatman GF/B glass fiber filter under vacuum using a cell collecting device. The filters were transferred to scintillation viols using a filter transfer system. After 4 ml of Ultima Gold® (Packard) have been added, the samples were shaken for one hour and the radioactivity was then counted in a Beta-Counter (Packard, Tricarb 2000 or 2200CA).

For experiment [2], the target named is T2, human dopamine D2L receptors (long isoform) (Homo sapiens, UniProt P14416).
T2 construct: expressed in transfected cells; host or cells: HEK-293
T2 sequence (P14416 whole entry, canonical isoform): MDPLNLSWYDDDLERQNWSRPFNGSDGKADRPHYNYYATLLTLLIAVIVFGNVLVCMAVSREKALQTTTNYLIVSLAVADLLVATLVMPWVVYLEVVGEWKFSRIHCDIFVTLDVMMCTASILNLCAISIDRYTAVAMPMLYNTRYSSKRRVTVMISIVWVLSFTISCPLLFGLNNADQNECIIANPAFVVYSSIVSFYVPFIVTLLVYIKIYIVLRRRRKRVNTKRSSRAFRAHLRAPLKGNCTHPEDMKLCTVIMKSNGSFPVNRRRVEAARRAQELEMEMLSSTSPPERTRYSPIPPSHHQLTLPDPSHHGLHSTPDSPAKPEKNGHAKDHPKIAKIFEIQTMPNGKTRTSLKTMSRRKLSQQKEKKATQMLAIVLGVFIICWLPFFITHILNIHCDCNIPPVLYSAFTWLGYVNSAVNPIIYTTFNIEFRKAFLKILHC
Nature of the experiment: Dopamine D2L receptor binding ([125I] iodospiperone displacement). To be noted: selectivity ratio of receptor binding constants, D2L versus D3, HEK-293 membranes. The procedure: as §1

Setting [3] is: membranes of HEK-293 cells stably expressing human D3 receptor, 0.1 nM [125I]-iodosulpride, 25° C., 60 minutes, read-out: Ki(D3)*.

In general, Ki refers to the dissociation constant of the complex between target and ligand, obtained from inhibition or displacement. For `CCCN1CCCC1Cc1ccc(NS(=O)(=O)c2ccc(C(C)C)cc2)cc1` (centres unmarked) [Example 11, 4-Isopropyl-N-[4-(1-propyl-pyrrolidin-2-ylmethyl)-phenyl]-benzenesulfonamide], the Ki in experiment [1] (setting [3]) was determined as 0.58 nM. Moreover, in experiment [2], the “Ki(D2)*/Ki(D3)*” value was determined as 16.
The corresponding values for `CCCN(CCC)CCc1ccc(NS(=O)(=O)c2ccc(C(C)C)cc2)cc1` [Example 8, N-[4-(2-Dipropylamino-ethyl)-phenyl]-4-isopropyl-benzenesulfonamide×HCl] are 0.2 nM and 54.
Take `CCCN[C@@H](C)Cc1ccc(NS(=O)(=O)c2ccc(OC(F)(F)F)cc2)cc1` [Example 1, N-[4-((S)-2-Propylamino-propyl)-phenyl]-4-trifluoromethoxy-benzenesulfonamide]: the Ki in experiment [1] stood at 43 nM. In experiment [2], the “Ki(D2)*/Ki(D3)*” value was 41.
As to `C=CCNCCc1ccc(N(CCC)S(=O)(=O)c2ccc(OC(F)(F)F)cc2)cc1.Cl` [Example 18, N-[4-(2-Allylamino-ethyl)-phenyl]-N-propyl-4-trifluoromethoxy-benzenesulfonamide×HCl], in experiment [1] (setting [3]), the Ki was 37 nM. Also, in experiment [2], the “Ki(D2)*/Ki(D3)*” value stood at 24.
With `C=CCNCCc1cccc(NS(=O)(=O)c2ccc(C(C)C)cc2)c1` [Example 21, N-[3-(2-Allylamino-ethyl)-phenyl]-4-isopropyl-benzenesulfonamide, reference compound], the affinity in experiment [1] corresponds to a Ki of 22 nM. In addition, the “Ki(D2)*/Ki(D3)*” value in experiment [2] came to 62.
`CCCNCCc1ccc(NS(=O)(=O)c2ccc(C(C)C)cc2)cc1.Cl` [Example 6, 4-Isopropyl-N-[4-(2-propylamino-ethyl)-phenyl]-benzenesulfonamide×HCl]: the Ki in experiment [1] (setting [3]) was 2.2 nM. Besides, the “Ki(D2)*/Ki(D3)*” value in experiment [2] was 22.
The corresponding values for `CC(C)c1ccc(S(=O)(=O)Nc2ccc(CCNCC3CC3)cc2)cc1` [Example 7, N-{4-[2-(Cyclopropylmethyl-amino)-ethyl]-phenyl}-4-isopropyl-benzenesulfonamide×HCl] are 18 nM and 23.
The corresponding values for `C=CCN(CC=C)CCc1ccc(NS(=O)(=O)c2ccc(C(C)C)cc2)cc1` [Example 19, N-[4-(2-Diallylamino-ethyl)-phenyl]-4-isopropyl-benzenesulfonamide×HCl] are 2.7 nM and 42.
The molecule `CCCN(CCC)CCc1ccc(CS(=O)(=O)c2ccc(OC(F)(F)F)cc2)cc1` [Example 26, Dipropyl-{2-[4-(4-trifluoromethoxy-benzenesulfonylmethyl)-phenyl]-ethyl}-dipropyl-amine×HCl] displayed a Ki in experiment [1] of 3.9 nM. In addition, in experiment [2], the “Ki(D2)*/Ki(D3)*” value amounted to 170.
For the molecule `C=CCNCCc1ccc(NS(=O)(=O)c2ccc(C(C)C)cc2)cc1.Cl` [Example 13, N-[4-(2-Allylamino-ethyl)-phenyl]-4-isopropyl-benzenesulfonamide×HCl], the Ki in experiment [1] (setting [3]) was determined as 1.7 nM. Further, the “Ki(D2)*/Ki(D3)*” value in experiment [2] is 74.
The corresponding values for `C=CCNCCc1ccc(N(C)S(=O)(=O)c2ccc(OC(F)(F)F)cc2)cc1` [Example 17, N-[4-(2-Allylamino-ethyl)-phenyl]-N-methyl-4-trifluoromethoxy-benzenesulfonamide×HCl] are 34 nM and 75.
In the same order, the values of `C=CCN(CC=C)CCc1ccc(NS(=O)(=O)c2ccc(OC(F)(F)F)cc2)cc1` [Example 20, N-[4-(2-Diallylamino-ethyl)-phenyl]-4-trifluoromethoxy-benzenesulfonamide×HCl] are 64 nM and 65.
Consider `C=CCN(CC=C)CCc1ccc(CS(=O)(=O)c2ccc(C(C)C)cc2)cc1` [Example 23, Diallyl-{2-[4-(4-isopropyl-benzenesulfonylmethyl)-phenyl]-ethyl}-amine×HCl], for which the affinity in experiment [1] corresponds to a Ki of 8.4 nM. In addition, the “Ki(D2)*/Ki(D3)*” value in experiment [2] worked out at 59.
As for `C=CCNCCc1ccc(N(C)S(=O)(=O)c2ccc(C(C)C)cc2)cc1.Cl` [Example 14, N-[4-(2-Allylamino-ethyl)-phenyl]-4-isopropyl-N-methyl-benzenesulfonamide×HCl], the Ki in experiment [1] (setting [3]) worked out at 27 nM. In addition, the “Ki(D2)*/Ki(D3)*” value in experiment [2] worked out at 40.
The corresponding values for `C=CCNCCc1ccc(NS(=O)(=O)c2ccc(OC(F)(F)F)cc2)cc1.Cl` [Example 16, N-[4-(2-Allylamino-ethyl)-phenyl]-4-trifluoromethoxy-benzenesulfonamide×HCl] are 31 nM and 79.
In experiment [1], `CCCN[C@H](C)Cc1ccc(NS(=O)(=O)c2ccc(OC(F)(F)F)cc2)cc1` [Example 2, N-[4-((R)-2-Propylamino-propyl)-phenyl]-4-trifluoromethoxy-benzenesulfonamide] yielded a Ki of 21 nM. In addition, the “Ki(D2)*/Ki(D3)*” value in experiment [2] is reported as 57.
For the molecule `CCCNCCc1ccc(CS(=O)(=O)c2ccc(C(C)C)cc2)cc1.Cl` [Example 28, {2-[4-(4-Isopropyl-benzenesulfonylmethyl)-phenyl]-ethyl}-propyl-amine×HCl], in experiment [1] (setting [3]), the Ki worked out at 4.8 nM. Besides, the “Ki(D2)*/Ki(D3)*” value in experiment [2] was found to be 130.
The corresponding values for `C=CCNCCc1ccc(N(CCC)S(=O)(=O)c2ccc(C(C)C)cc2)cc1.Cl` [Example 15, N-[4-(2-Allylamino-ethyl)-phenyl]-4-isopropyl-N-propyl-benzenesulfonamide×HCl] are 22 nM and 22.
In the same order, the values of `CCCN(CCC)CCc1ccc(CS(=O)(=O)c2ccc(C(C)C)cc2)cc1` [Example 25, Dipropyl-{2-[4-(4-isopropyl-benzenesulfonylmethyl)-phenyl]-ethyl}-amine×HCl] are 0.5 nM and 175.
In the same order, the values of `CCCNCCc1ccc(NS(=O)(=O)c2ccc(C(C)C)cc2)cn1` [Example 10, 4-Isopropyl-N-[6-(2-propylamino-ethyl)-pyridin-3-yl]-benzenesulfonamide×2HCl] are 42 nM and 53.
Consider `CCCNC(C)Cc1ccc(NS(=O)(=O)c2ccc(C(C)C)cc2)cc1.Cl` (centres unmarked) [Example 3, 4-Isopropyl-N-[4-(2-propylamino-propyl)-phenyl]-benzenesulfonamide×HCl], for which, in experiment [1] (setting [3]), the Ki is 2.8 nM. Further, the “Ki(D2)*/Ki(D3)*” value in experiment [2] was found to be 33.
The corresponding values for `CCCN(CCC)CCc1ccc(N(C)S(=O)(=O)c2ccc(C(C)C)cc2)cc1` [Example 9, N-[4-(2-Dipropylamino-ethyl)-phenyl]-4-isopropyl-N-methyl-benzenesulfonamide×HCl] are 2 nM and 40.
